# Laboratory results: PubChem BioAssay (NCI)
# Values joined by “and” are separate entries in the source; they are usually repeats but may differ in a detail not shown here. Identical values can stand only once.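 Compound exposure: 48 hours, 5 concentrations, 96-well plates. Here, GI50 denotes the concentration required for 50% inhibition of growth. TGI is the concentration that stops growth completely.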 *1 amine or outer side, *2 acyl side, *3 side chain or, on linkers, in order; H or OH if unused. Where a SMILES comes first, the peptide text is derived from it. Bridges are numbered along the chain shown (N, C = ends). [ ]: non-standard residue; d: D form. ξ: configuration not given here. X4 = CCC(C)C(N[*:1])C(O)CC(=O)O[C@H](C(=O)C(C)C(=O)[*:2])C(C)C; NMeY = CN[C@@H](Cc1ccc(O)cc1)C(=O)O; ξNMeL = CNC(CC(C)C)C(=O)O; ξT = CC(O)C(N)C(=O)O
# Legend:
# Experiment in all cases: DTP human tumour cell line panel, 48 h
# K-562 leukemia = tested on: K-562 leukemia
# UACC-62 melanoma = tested on: UACC-62 melanoma
# M14 melanoma = tested on: M14 melanoma
# MDA-N = tested on: MDA-N
# KM12 colon = tested on: KM12 colon
# A498 renal = tested on: A498 renal
# HCT-15 colon = tested on: HCT-15 colon
# SW-620 colon = tested on: SW-620 colon
# 786-0 renal = tested on: 786-0 renal
SMILES,TGI (K-562 leukemia),TGI (UACC-62 melanoma),TGI (M14 melanoma),TGI (MDA-N),TGI (KM12 colon),TGI (A498 renal),TGI (HCT-15 colon),TGI (SW-620 colon),TGI (786-0 renal),GI50 (K-562 leukemia),GI50 (A498 renal),GI50 (HCT-15 colon),GI50 (M14 melanoma),GI50 (KM12 colon),GI50 (UACC-62 melanoma)
O=C(/C=C/c1ccc([N+](=O)[O-])cc1)c1nc2ccccc2[nH]1,> 61.5 µM,63 µM,> 100 µM,> 100 µM,> 100 µM,3.99 µM,> 100 µM,> 100 µM,> 100 µM,–,–,–,–,–,–
CSCCC(NC(=O)OC(C)(C)C)C(=O)NCCNc1ccc(NCCNC(=O)C(CCSC)NC(=O)OC(C)(C)C)c2c1C(=O)c1ccccc1C2=O (stereo unspecified),> 32.7 µM,14.4 µM,14.1 µM,7.03 µM,> 63.6 µM,21.1 µM,> 100 µM,7.3 µM,12.8 µM,–,–,–,–,–,–
CC[N+](C)(CC)CCN1C(=O)c2ccccc2S1(=O)=O,–,> 100 µM,> 100 µM,–,> 100 µM,> 100 µM,> 100 µM,> 100 µM,> 100 µM,–,–,–,–,–,–
NC(=O)CC(Nc1ncc2c(n1)-c1ccccc1OC2)C(=O)O (stereo unspecified),> 100 µM,> 100 µM,> 100 µM,> 100 µM,> 100 µM,–,> 100 µM,> 100 µM,> 100 µM,–,–,–,–,–,–
COc1c/c(=C2/C=c3ccccc3=N2)[nH]/c1=C/c1[nH]c(C)cc1C,9.91 µM,–,–,–,–,4.31 µM,> 100 µM,–,–,0.152 µM,0.267 µM,0.0363 µM,–,–,–
CC[N+](CC)=c1ccc2nc3c(cc(N)c4ccccc43)oc-2c1,–,–,0.61 µM,–,0.666 µM,–,–,–,–,–,–,–,0.216 µM,0.247 µM,–
CN1C2CC(=O)CC1[C@@H]1OC(c3ccccc3)O[C@H]21 (stereo partly specified),> 100 µM,> 100 µM,> 100 µM,> 100 µM,> 100 µM,–,> 100 µM,> 100 µM,> 100 µM,–,–,–,–,–,–
N#CC1=CNc2sccc2S1(=O)=O,–,> 100 µM,> 100 µM,> 100 µM,> 100 µM,> 100 µM,> 100 µM,> 100 µM,> 100 µM,–,–,–,–,–,–
O=C1NC(N/N=C\c2ccccc2)=N/C1=C/c1ccc(Cl)cc1,> 100 µM,–,> 100 µM,> 100 µM,95.5 µM,–,62.7 µM,> 100 µM,> 100 µM,–,–,–,–,–,–
COc1ccc(NC2Oc3cc4c(cc3C(c3cc(OC)c(O)c(OC)c3)C2C)OCO4)cc1 (stereo unspecified),12.3 µM,35.2 µM,> 100 µM,–,> 100 µM,31.7 µM,11.3 µM,> 100 µM,37.9 µM,–,–,–,–,–,–
OCCN=C1Nc2ccc(Cl)cc2C(=S)N2CSC[C@@H]12,> 100 µM,> 100 µM,> 100 µM,–,> 100 µM,> 100 µM,> 100 µM,> 100 µM,> 100 µM,–,–,–,–,–,–
CCC(C)C1NC(=O)C(NC(=O)C(CC(C)C)N(C)C(=O)[C@@H]2CCCN2)C(C)OC(=O)[C@H](Cc2ccc(OC)cc2)N(C)C(=O)[C@@H]2CCCN2C(=O)[C@H](CC(C)C)NC(=O)C(C)C(=O)[C@H](C(C)C)OC(=O)CC1O (stereo partly specified) (H-P[ξNMeL][ξT][X4]LP[NMeY](Me); ester 3-C),–,0.00147 µM,0.00865 µM,0.0107 µM,–,0.0372 µM and 0.15 µM,0.224 µM and 0.146 µM,0.0802 µM and 0.0232 µM,0.0115 µM and 0.0174 µM,–,–,–,–,–,–
O=C(N=Nc1ccccc1Br)NNc1ccccc1Br,> 100 µM,> 100 µM,> 100 µM,> 100 µM,–,> 100 µM,> 100 µM,> 100 µM,> 100 µM,–,–,–,–,–,–
CCOP(=O)(OCC)C(Nc1ccc(F)cc1)c1cccc([N+](=O)[O-])c1 (stereo unspecified),> 100 µM,> 100 µM,> 100 µM,> 100 µM,> 100 µM,> 100 µM,> 100 µM,> 100 µM,–,–,–,–,–,–,–
Cc1ccc(O)c(C2=NNC(c3cccc(Br)c3)C2)c1 (stereo unspecified),> 100 µM,> 100 µM,> 100 µM,> 100 µM,> 100 µM,–,35.1 µM,> 100 µM,> 100 µM,–,–,–,–,–,–
CSc1nncc(-c2cc3c(c(SC)n2)CCC3)n1,–,> 100 µM,> 100 µM,–,> 100 µM,–,> 100 µM,> 100 µM,> 100 µM,–,–,–,–,–,–
N#CCc1nc(C#N)c(N)o1,–,> 100 µM,> 100 µM,> 100 µM,> 100 µM,> 100 µM,> 100 µM,> 100 µM,> 100 µM,–,–,–,–,–,–
O=C(NNC(=S)Nc1ccccc1)c1csc(NC(=S)NC2CCCCC2)n1,–,> 100 µM,> 100 µM,> 100 µM,> 100 µM,> 100 µM,> 100 µM,> 100 µM,> 100 µM,–,–,–,–,–,–
Nc1nc2c(ncn2C2C=CC(CO)O2)c(=O)[nH]1 (stereo unspecified),–,–,> 100 µM,> 100 µM,> 100 µM,> 100 µM,> 100 µM,> 100 µM,–,–,–,–,–,–,–
CCOC(=O)C(Cc1ccccc1)(Cc1ccc(O)cn1)NC(=O)c1ccccc1 (stereo unspecified),> 100 µM,46 µM,40.5 µM,23 µM,54.8 µM,–,> 100 µM,> 100 µM,82.6 µM,–,–,–,–,–,–
CCOC(=O)C(O)(NC(C)=O)C(F)(F)F (stereo unspecified),> 100 µM,> 100 µM,> 100 µM,> 100 µM,> 100 µM,–,> 100 µM,> 100 µM,–,–,–,–,–,–,–
CC1(C)C2CC(c3ccncc3)ON2C(C)(C)N1O (stereo unspecified),> 100 µM,> 100 µM,> 100 µM,> 100 µM,> 100 µM,–,> 100 µM,> 100 µM,> 100 µM,–,–,–,–,–,–
N#CCCN(CCCN(C(=O)Nc1ccccc1)c1ccccc1)C(=O)Nc1ccccc1,> 100 µM,> 100 µM,> 100 µM,> 100 µM,> 100 µM,–,> 100 µM,> 100 µM,> 100 µM,–,–,–,–,–,–
CCOC(=O)c1sc2c(c1OC(=O)c1ccccc1)c(=O)n(-c1ccccc1)c(=S)n2-c1ccccc1,> 100 µM,52.3 µM,45.2 µM,–,> 100 µM,31 µM,> 100 µM,> 100 µM,29.4 µM,–,–,–,–,–,–
CC1=CC[C@@H]2CC[C@]3(C)[C@H](CC[C@@H]4[C@@]5(C)CCCNC(C)(C)[C@@H]5CC[C@]43C)[C@H]2[C@@H]1C,–,3.22 µM,3.26 µM,–,–,3.6 µM,–,–,–,–,1.87 µM,–,1.73 µM,–,1.77 µM
